Test results from patent US6737383B1, “Herbicidal oxadiazolidines” (priority 1999, dated 2004).

Key:
bedstraw = test: Test B pre/postemergence bedstraw; type: in vivo, Galium aparine; settings: Preemergence, Rate 62 g/ha; scale 0 to 10 (0 no effect, 10 complete control)
How it was run: (§1)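 Response is a visual 0-to-10 score relative to untreated plants, where 0 means no effect and 10 means complete control, taken twelve to sixteen days after application. Treatments went onto soil at planting and onto foliage of 1- to 4-leaf plants, using a surfactant-containing non-phytotoxic solvent.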

blackgrass = test: Test B pre/postemergence blackgrass; type: in vivo, Alopecurus myosuroides
How it was run: as §1

surinam grass = test: Test B pre/postemergence surinam grass; type: in vivo, Brachiaria decumbens
How it was run: as §1

cocklebur = test: Test B pre/postemergence cocklebur; type: in vivo, Xanthium strumarium
How it was run: as §1

corn = test: Test B pre/postemergence corn; type: in vivo, Zea mays
How it was run: as §1

crabgrass = test: Test B pre/postemergence crabgrass; type: in vivo, Digitaria sanguinalis
How it was run: as §1

giant foxtail = test: Test B pre/postemergence giant foxtail; type: in vivo, Setaria faberii
How it was run: as §1

morningglory = test: Test B pre/postemergence morningglory; type: in vivo, Ipomoea hederacea
How it was run: as §1

pigweed = test: Test B pre/postemergence pigweed; type: in vivo, Amaranthus retroflexus
How it was run: as §1

rape = test: Test B pre/postemergence rape; type: in vivo, Brassica napus
How it was run: as §1

soybean = test: Test B pre/postemergence soybean; type: in vivo, Glycine max
How it was run: as §1

sugar beet = test: Test B pre/postemergence sugar beet; type: in vivo, Beta vulgaris
How it was run: as §1

velvetleaf = test: Test B pre/postemergence velvetleaf; type: in vivo, Abutilon theophrasti
How it was run: as §1

wheat = test: Test B pre/postemergence wheat; type: in vivo, Triticum aestivum
How it was run: as §1

wild oat = test: Test B pre/postemergence wild oat; type: in vivo, Avena fatua
How it was run: as §1

purple nutsedge = test: Test B pre/postemergence purple nutsedge; type: in vivo, Cyperus rotundus
How it was run: as §1

rice = test: Test B flood test rice; type: in vivo, Oryza sativa
How it was run: (§2)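 Read-out is a visual response score from 0 (no effect) to 10 (complete control), assigned by comparison with untreated controls. Treatment was applied at the 2-leaf stage, and plants stayed in the greenhouse for twelve to sixteen days before scoring.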

smallflower flatsedge = test: Test B flood test smallflower flatsedge; type: in vivo, Cyperus difformis
How it was run: as §2

duck salad = test: Test B flood test duck salad; type: in vivo, Heteranthera limosa
How it was run: as §2

bamyardgrass = test: Test B flood test barnyardgrass; type: in vivo, Echinochloa crus-galli
How it was run: as §2

[1] = Postemergence, Rate 125 g/ha, scale 0 to 10, 0 is no effect, 10 is complete control
[2] = Postemergence, Rate 250 g/ha, scale 0 to 10, 0 is no effect, 10 is complete control
[3] = Postemergence, Rate 500 g/ha, scale of 0 to 10 where 0 is no effect and 10 is complete control
[4] = Preemergence, Rate 62 g/ha, scale 0 to 10 (0 no effect, 10 complete control)
[5] = Preemergence, Rate 125 g/ha, scale of 0 to 10 where 0 is no effect and 10 is complete control
[6] = Preemergence, Rate 250 g/ha, scale of 0 to 10 where 0 is no effect and 10 is complete control
[7] = Preemergence, Rate 500 g/ha, scale of 0 to 10 where 0 is no effect and 10 is complete control
[8] = Rate 62 g/ha, Postemergence, scale of 0 to 10 where 0 is no effect and 10 is complete control
[9] = Rate 62 g/ha, flood test species, Pre-emergence, visual evaluation after twelve to sixteen days
[10] = Rate 125 g/ha, under heading Pre-emergence, flood test species, visual evaluation after twelve to sixteen days
[11] = Rate 250 g/ha, Pre-emergence, flood-test species, scale 0 to 10, 0 is no effect, 10 is complete control
[12] = Rate 500 g/ha, Pre-emergence, flood test species, scale 0 to 10 (0 no effect, 10 complete control)

## CC(C)N(C(=O)n1oc(=O)n(C(C)Cl)c1=O)c1ccc(F)cc1 (stereo not shown) [Compound 393]
bedstraw
  Plant response rating, Bedstraw: 0
blackgrass; [1]
  Plant response rating, Blackgrass: 2
blackgrass; [2]
  Plant response rating, Blackgrass: 3
blackgrass; [3]
  Blackgrass plant response rating: 8
blackgrass; [4]
  Plant response rating, Blackgrass: 0
blackgrass; [5]
  Plant response rating, Blackgrass: 0
blackgrass; [6]
  Blackgrass plant response rating: 0
blackgrass; [7]
  Blackgrass plant response rating: 3
blackgrass; [8]
  Blackgrass plant response rating: 0
Surinam grass; [1]
  Plant response rating, B. signalgrass: 0
Surinam grass; [2]
  Plant response rating, B. signalgrass: 0
Surinam grass; [3]
  B. signalgrass plant response rating: 0
Surinam grass; [4]
  Plant response rating, B. signalgrass: 0
Surinam grass; [5]
  Plant response rating, B. signalgrass: 0
Surinam grass; [6]
  B. signalgrass plant response rating: 0
Surinam grass; [7]
  B. signalgrass plant response rating: 2
Surinam grass; [8]
  B. signalgrass plant response rating: 0
cocklebur; [1]
  Plant response rating, Cocklebur: 0
cocklebur; [2]
  Plant response rating, Cocklebur: 0
cocklebur; [3]
  Cocklebur plant response rating: 0
cocklebur; [4]
  Plant response rating, Cocklebur: 0
cocklebur; [5]
  Plant response rating, Cocklebur: 0
cocklebur; [6]
  Cocklebur plant response rating: 0
cocklebur; [7]
  Cocklebur plant response rating: 0
cocklebur; [8]
  Cocklebur plant response rating: 0
corn; [1]
  Plant response rating, Corn: 0
corn; [2]
  Plant response rating, Corn: 0
corn; [3]
  Corn plant response rating: 0
corn; [4]
  Plant response rating, Corn: 0
corn; [5]
  Plant response rating, Corn: 0
corn; [6]
  Corn plant response rating: 0
corn; [7]
  Corn plant response rating: 0
corn; [8]
  Corn plant response rating: 0
crabgrass; [1]
  Plant response rating, Crabgrass: 1
crabgrass; [2]
  Plant response rating, Crabgrass: 5
crabgrass; [3]
  Crabgrass plant response rating: 8
crabgrass; [4]
  Plant response rating, Crabgrass: 0
crabgrass; [5]
  Plant response rating, Crabgrass: 2
crabgrass; [6]
  Crabgrass plant response rating: 3
crabgrass; [7]
  Crabgrass plant response rating: 8
crabgrass; [8]
  Crabgrass plant response rating: 0
Giant foxtail; [1]
  Plant response rating, Giant foxtail: 8
Giant foxtail; [2]
  Plant response rating, Giant foxtail: 9
Giant foxtail; [3]
  Giant foxtail plant response rating: 9
Giant foxtail; [4]
  Plant response rating, Giant foxtail: 1
Giant foxtail; [5]
  Plant response rating, Giant foxtail: 9
Giant foxtail; [6]
  Giant foxtail plant response rating: 10
Giant foxtail; [7]
  Giant foxtail plant response rating: 10
Giant foxtail; [8]
  Giant foxtail plant response rating: 5
morningglory; [2]
  Plant response rating, Morningglory: 0
morningglory; [3]
  Morningglory plant response rating: 0
morningglory; [4]
  Plant response rating, Morningglory: 0
morningglory; [5]
  Plant response rating, Morningglory: 0
morningglory; [6]
  Morningglory plant response rating: 0
morningglory; [7]
  Morningglory plant response rating: 2
morningglory; [8]
  Morningglory plant response rating: 0
pigweed; [2]
  Plant response rating, Redroot pigweed: 0
pigweed; [3]
  Redroot pigweed plant response rating: 0
pigweed; [4]
  Plant response rating, Redroot pigweed: 0
pigweed; [5]
  Plant response rating, Redroot pigweed: 2
pigweed; [6]
  Redroot pigweed plant response rating: 2
pigweed; [7]
  Redroot pigweed plant response rating: 10
pigweed; [8]
  Redroot pigweed plant response rating: 0
rape; [2]
  Plant response rating, Rape: 3
rape; [4]
  Plant response rating, Rape: 0
rape; [5]
  Plant response rating, Rape: 0
rape; [6]
  Rape plant response rating: 0
rape; [7]
  Rape plant response rating: 0
soybean; [2]
  Plant response rating, Soybean: 2
soybean; [3]
  Soybean plant response rating: 2
soybean; [4]
  Plant response rating, Soybean: 0
soybean; [5]
  Plant response rating, Soybean: 0
soybean; [6]
  Soybean plant response rating: 0
soybean; [7]
  Soybean plant response rating: 0
soybean; [8]
  Soybean plant response rating: 1
Sugar beet; [2]
  Plant response rating, Sugarbeets: 0
Sugar beet; [3]
  Sugarbeets plant response rating: 7
Sugar beet; [4]
  Plant response rating, Sugarbeets: 0
Sugar beet; [5]
  Plant response rating, Sugarbeets: 2
Sugar beet; [6]
  Sugarbeets plant response rating: 2
Sugar beet; [7]
  Sugarbeets plant response rating: 3
Sugar beet; [8]
  Sugarbeets plant response rating: 0
velvetleaf; [2]
  Plant response rating, Velvetleaf: 0
velvetleaf; [3]
  Velvetleaf plant response rating: 0
velvetleaf; [4]
  Plant response rating, Velvetleaf: 0
velvetleaf; [5]
  Plant response rating, Velvetleaf: 0
velvetleaf; [6]
  Velvetleaf plant response rating: 0
velvetleaf; [7]
  Velvetleaf plant response rating: 0
velvetleaf; [8]
  Velvetleaf plant response rating: 0
wheat; [3]
  Wheat plant response rating: 0
wheat; [4]
  Plant response rating, Wheat: 0
wheat; [5]
  Plant response rating, Wheat: 0
wheat; [6]
  Wheat plant response rating: 0
wheat; [7]
  Wheat plant response rating: 0
wheat; [8]
  Wheat plant response rating: 0
Wild oat; [3]
  Wild oats plant response rating: 0
Wild oat; [4]
  Plant response rating, Wild oats: 0
Wild oat; [5]
  Plant response rating, Wild oats: 0
Wild oat; [6]
  Wild oats plant response rating: 0
Wild oat; [7]
  Wild oats plant response rating: 3
Wild oat; [8]
  Wild oats plant response rating: 0
Purple nutsedge; [2]
  Plant response rating, Nutsedge: 0
Purple nutsedge; [3]
  Nutsedge plant response rating: 0
Purple nutsedge; [4]
  Plant response rating, Nutsedge: 0
Purple nutsedge; [5]
  Plant response rating, Nutsedge: 0
Purple nutsedge; [6]
  Nutsedge plant response rating: 0
Purple nutsedge; [7]
  Nutsedge plant response rating: 0
Purple nutsedge; [8]
  Nutsedge plant response rating: 0
rice; [9]
  Plant response rating, Rice (0 to 10 scale, 0 is no effect, 10 is complete control): 0
rice; [10]
  Rice plant response rating (0 to 10 scale, 0 is no effect, 10 is complete control): 0
rice; [11]
  Rice plant response rating: 0
rice; [12]
  Rice plant response rating: 0
Smallflower flatsedge; [9]
  Plant response rating, S. Flatsedge (0 to 10 scale, 0 is no effect, 10 is complete control): 0
Smallflower flatsedge; [10]
  S. Flatsedge plant response rating (0 to 10 scale, 0 is no effect, 10 is complete control): 0
Smallflower flatsedge; [11]
  S. Flatsedge plant response rating: 0
Smallflower flatsedge; [12]
  S. Flatsedge plant response rating: 0
Duck salad; [9]
  Plant response rating, Ducksalad (0 to 10 scale, 0 is no effect, 10 is complete control): 0
Duck salad; [10]
  Ducksalad plant response rating (0 to 10 scale, 0 is no effect, 10 is complete control): 0
Duck salad; [11]
  Ducksalad plant response rating: 0
Duck salad; [12]
  Ducksalad plant response rating: 0
bamyardgrass; [9]
  Plant response rating, Barnyardgrass (0 to 10 scale, 0 is no effect, 10 is complete control): 0
bamyardgrass; [10]
  Barnyardgrass plant response rating (0 to 10 scale, 0 is no effect, 10 is complete control): 0
bamyardgrass; [11]
  Barnyardgrass plant response rating: 0
bamyardgrass; [12]
  Barnyardgrass plant response rating: 0
